Measured values from US20230265151A1, “GIP/GLP1 CO-AGONIST COMPOUNDS” (priority 2020, published 2023).
Where two headings read alike, the source gives them in different places. *1 amine or outer side, *2 acyl side, *3 side chain or, on linkers, in order; H or OH if unused. Where a SMILES comes first, the peptide text is derived from it. Side-chain parts run from the residue outwards. [ ]: non-standard residue; d: D form. The star is where a group is joined. Butanoyl(4-(4-tBuPh)) = CC(C)(C)c1ccc(CCCC(=O)*)cc1; αMePhe(2-F) = C[C@](N)(Cc1ccccc1F)C(=O)O; γGlu = O=C(O)[C@H](CCC(=O)[*:2])N[*:1]; αMeY = C[C@](N)(Cc1ccc(O)cc1)C(=O)O; 4Pal = N[C@@H](Cc1ccncc1)C(=O)O; αMeL = CC(C)C[C@](C)(N)C(=O)O; Orn = NCCC[C@H](N)C(=O)O; AEEA = NCCOCCOCC(=O)O; Aib = CC(C)(N)C(=O)O

What was measured:
Format in all cases: cell-based
[1] = molecular target: hGLP-1R (Homo sapiens, UniProt P43220); assay: Functional cAMP formation (HTRF) in HEK-293 clonal cells expressing hGLP-1R, 0.1% bovine casein, without or with 1.0% human serum albumin; parameters: expressed in transfected cells; details: for EC50: geometric mean
Summary of the method: (§1)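 Cells were stimulated with peptide for 30 min at 37° C, then lysed in buffer carrying cAMP-d2 and anti-cAMP Eu3+-cryptate for a competitive HTRF read after at least 60 min at room temperature. The 665/620 nm ratio was converted to nM cAMP against a standard curve.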

[2] = molecular target: T1, hGCGR (Homo sapiens, UniProt P47871); assay: Functional cAMP formation (HTRF) in HEK-293 clonal cells expressing hGCGR, 0.1% bovine casein, without or with 1.0% human serum albumin
T1 construct: expressed in transfected cells
Summary of the method: as §1

[3] = molecular target: T2, hGIPR (Homo sapiens, UniProt P48546); assay: Functional cAMP formation (HTRF) in HEK-293 clonal cells expressing hGIPR, 0.1% bovine casein, without or with 1.0% human serum albumin; details: for EC50: geometric mean
T2 construct: expressed in transfected cells
T2 sequence (P48546 22-466): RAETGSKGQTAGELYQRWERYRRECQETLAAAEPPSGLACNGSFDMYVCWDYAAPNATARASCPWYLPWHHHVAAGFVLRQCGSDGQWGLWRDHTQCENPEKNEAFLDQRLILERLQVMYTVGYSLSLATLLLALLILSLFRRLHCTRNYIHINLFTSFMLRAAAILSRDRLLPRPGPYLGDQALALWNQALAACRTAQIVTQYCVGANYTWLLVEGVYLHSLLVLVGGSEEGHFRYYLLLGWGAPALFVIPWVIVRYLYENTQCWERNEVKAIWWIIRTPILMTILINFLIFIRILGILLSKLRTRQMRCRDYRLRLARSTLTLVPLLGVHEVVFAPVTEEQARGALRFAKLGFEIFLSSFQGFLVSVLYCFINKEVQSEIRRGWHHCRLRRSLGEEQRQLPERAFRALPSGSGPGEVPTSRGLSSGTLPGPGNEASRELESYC
Summary of the method: as §1

[4] = HEK293, percent of maximal response to GLP-1(7-36)NH2, 37° C., 0.1% bovine casein, arithmetic mean, read-out: hGLP-1R Emax, % ± SEM
[5] = cAMP, incubated at 37° C., 0.1% bovine casein (no human serum albumin), geometric mean, read-out: hGCGR EC50, nM (SEM, n)
[6] = cAMP, incubated at 37° C., 0.1% bovine casein (no human serum albumin), read-out: hGIPR EC50, nM (SEM, n)
[7] = HEK293, 0.1% bovine casein and 1.0% human serum albumin, 37° C., percent of maximal response to GLP-1(7-36)NH2, read-out: hGLP-1R Emax, % ± SEM
[8] = 0.1% bovine casein and 1.0% human serum albumin, 37° C., geometric mean, read-out: hGCGR EC50, nM (SEM, n)
[9] = HEK293, 0.1% bovine casein and 1.0% human serum albumin, 37° C., percent of maximal response to GIP(1-42)NH2, read-out: hGIPR Emax, % ± SEM

Chain of hGLP-1R (P43220 24-463): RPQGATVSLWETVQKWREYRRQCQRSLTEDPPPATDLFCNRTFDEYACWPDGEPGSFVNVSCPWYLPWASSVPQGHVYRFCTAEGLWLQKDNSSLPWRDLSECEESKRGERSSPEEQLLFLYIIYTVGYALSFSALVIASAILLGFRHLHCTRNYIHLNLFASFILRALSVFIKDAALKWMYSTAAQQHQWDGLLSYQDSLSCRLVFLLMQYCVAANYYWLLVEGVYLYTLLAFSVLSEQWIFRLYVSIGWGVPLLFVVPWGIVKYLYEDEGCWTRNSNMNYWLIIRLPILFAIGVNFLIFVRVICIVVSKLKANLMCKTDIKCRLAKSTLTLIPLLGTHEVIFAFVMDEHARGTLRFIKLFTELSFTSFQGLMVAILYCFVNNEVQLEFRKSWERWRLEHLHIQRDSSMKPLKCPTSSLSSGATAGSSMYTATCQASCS
T1 sequence (P47871 26-477): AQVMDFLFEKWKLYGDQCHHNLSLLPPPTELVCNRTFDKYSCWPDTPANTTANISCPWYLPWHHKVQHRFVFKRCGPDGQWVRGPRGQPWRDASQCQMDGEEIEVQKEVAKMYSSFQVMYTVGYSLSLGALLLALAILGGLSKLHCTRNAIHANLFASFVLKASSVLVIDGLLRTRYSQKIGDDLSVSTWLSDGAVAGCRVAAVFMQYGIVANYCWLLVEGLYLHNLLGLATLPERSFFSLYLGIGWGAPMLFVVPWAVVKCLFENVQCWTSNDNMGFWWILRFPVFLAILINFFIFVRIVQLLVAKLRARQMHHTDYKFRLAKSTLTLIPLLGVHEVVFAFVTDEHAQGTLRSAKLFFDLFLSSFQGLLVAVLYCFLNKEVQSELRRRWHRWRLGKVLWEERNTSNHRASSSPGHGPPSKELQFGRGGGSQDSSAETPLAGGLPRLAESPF

## CC[C@H](C)[C@H](NC(=O)[C@H](CC(C)C)NC(=O)[C@](C)(Cc1ccc(O)cc1)NC(=O)[C@@H](CCC(=O)O)NC(=O)[C@@H](NC(=O)[C@H](Cc1ccccc1)NC(=O)[C@H](CCC(=O)O)NC(=O)C(C)(C)NC(=O)[C@H](CCC(N)=O)NC(=O)[C@H](C)NC(=O)[C@H](CCCCNC(=O)COCCOCCNC(=O)CC[C@H](NC(=O)CCCCCCCCCOc1ccc(C(=O)O)cc1)C(=O)O)NC(=O)[C@H](CCCN)NC(=O)[C@H](CC(=O)O)NC(=O)[C@H](CC(C)C)NC(=O)[C@](C)(CC(C)C)NC(=O)[C@@H](NC(=O)C(C)(C)NC(=O)[C@H](Cc1ccc(O)cc1)NC(=O)[C@H](CC(=O)O)NC(=O)[C@H](CO)NC(=O)[C@@H](NC(=O)[C@](C)(Cc1ccccc1F)NC(=O)[C@@H](NC(=O)CNC(=O)[C@H](CCC(=O)O)NC(=O)C(C)(C)NC(=O)[C@@H](N)Cc1ccc(O)cc1)[C@@H](C)O)[C@@H](C)O)[C@@H](C)CC)[C@@H](C)CC)C(=O)N[C@@H](CCCCNC(=O)COCCOCCNC(=O)CC[C@H](NC(=O)CCCCCCCCCOc1ccc(C(=O)O)cc1)C(=O)O)C(=O)NCC(=O)NCC(=O)N1CCC[C@H]1C(=O)N[C@@H](CO)C(=O)N[C@@H](CO)C(=O)NCC(=O)N[C@@H](C)C(=O)N1CCC[C@H]1C(=O)N1CCC[C@H]1C(=O)N1CCC[C@H]1C(=O)N[C@@H](CO)C(N)=O [Example 373]
[1]; HEK293, read-out: hGLP-1R Emax, % ± SEM, cAMP, 37° C., 0.1% bovine casein and 1.0% human serum albumin, percent of maximal response to GLP-1(7-36)NH2
  Emax: 112%
[1]; hGLP-1R EC50, nM (SEM, n), cAMP, 37° C., 0.1% bovine casein (no human serum albumin)
  EC50: 0.329 nM
[2]; hGCGR EC50, nM (SEM, n), cAMP, 37° C., 0.1% bovine casein (no human serum albumin), geometric mean
  EC50: > 9950 nM
[2]; hGCGR EC50, nM (SEM, n), cAMP, 37° C., 0.1% bovine casein and 1.0% human serum albumin, geometric mean (SEM, n)
  EC50: > 9950 nM
[3]; HEK293, read-out: hGIPR Emax, % ± SEM, cAMP, 37° C., 0.1% bovine casein and 1.0% human serum albumin, percent of maximal response to GIP(1-42)NH2
  Emax: 82.4%
[3]; hGIPR EC50, nM (SEM, n), cAMP, 37° C., 0.1% bovine casein (no human serum albumin)
  EC50: 0.0152 nM

## CC[C@H](C)[C@H](NC(=O)[C@H](CC(C)C)NC(=O)[C@](C)(Cc1ccc(O)cc1)NC(=O)[C@@H](CCC(=O)O)NC(=O)[C@@H](NC(=O)[C@H](CC1CCCCC1)NC(=O)[C@H](CCC(=O)O)NC(=O)C(C)(C)NC(=O)[C@H](CCC(N)=O)NC(=O)[C@H](C)NC(=O)[C@H](CCCCNC(=O)COCCOCCNC(=O)COCCOCCNC(=O)CC[C@H](NC(=O)CCCCCCCCCCCCC(=O)O)C(=O)O)NC(=O)[C@H](CCCN)NC(=O)[C@H](CC(=O)O)NC(=O)[C@H](CC(C)C)NC(=O)[C@](C)(CC(C)C)NC(=O)[C@@H](NC(=O)[C@H](CO)NC(=O)[C@H](Cc1ccncc1)NC(=O)[C@H](CC(=O)O)NC(=O)[C@H](CO)NC(=O)[C@@H](NC(=O)[C@](C)(Cc1ccccc1F)NC(=O)[C@@H](NC(=O)CNC(=O)[C@H](CCC(=O)O)NC(=O)C(C)(C)NC(=O)[C@@H](N)Cc1ccc(O)cc1)[C@@H](C)O)[C@@H](C)O)[C@@H](C)CC)[C@@H](C)CC)C(=O)N[C@@H](CCC(=O)O)C(=O)NCC(=O)NCC(=O)N[C@@H](CCCCNC(=O)COCCOCCNC(=O)COCCOCCNC(=O)CC[C@H](NC(=O)CCCCCCCCCCCCC(=O)O)C(=O)O)C(=O)N[C@@H](CO)C(=O)N[C@@H](CO)C(=O)NCC(=O)N[C@@H](C)C(=O)N1CCC[C@H]1C(=O)N1CCC[C@H]1C(=O)N1CCC[C@H]1C(=O)N[C@@H](CO)C(N)=O [Example 148]
[1]; [4]
  Emax: 94.5%
[2]; [5]
  EC50: > 9950 nM
[3]; [6]
  EC50: 0.0209 nM

## CC[C@H](C)[C@H](NC(=O)[C@H](CCCN)NC(=O)[C@H](CC(=O)O)NC(=O)[C@H](CC(C)C)NC(=O)[C@](C)(CC(C)C)NC(=O)[C@@H](NC(=O)[C@H](CO)NC(=O)[C@H](Cc1ccncc1)NC(=O)[C@H](CC(=O)O)NC(=O)[C@H](CO)NC(=O)[C@@H](NC(=O)[C@](C)(Cc1ccccc1F)NC(=O)[C@@H](NC(=O)CNC(=O)[C@H](CCC(=O)O)NC(=O)C(C)(C)NC(=O)[C@@H](N)Cc1ccc(O)cc1)[C@@H](C)O)[C@@H](C)O)[C@@H](C)CC)C(=O)N[C@@H](C)C(=O)N[C@@H](CCC(N)=O)C(=O)NC(C)(C)C(=O)N[C@@H](CCC(=O)O)C(=O)N[C@@H](Cc1ccccc1)C(=O)N[C@H](C(=O)N[C@H](CCC(=O)O)C(=O)N[C@@](C)(Cc1ccc(O)cc1)C(=O)N[C@@H](CC(C)C)C(=O)N[C@H](C(=O)N[C@@H](CCCCNC(=O)COCCOCCNC(=O)COCCOCCNC(=O)CC[C@H](NC(=O)CCCc1ccc(C(C)(C)C)cc1)C(=O)O)C(=O)NCC(=O)NCC(=O)N1CCC[C@H]1C(=O)N[C@@H](CO)C(=O)N[C@@H](CO)C(=O)NCC(=O)N[C@@H](C)C(=O)N1CCC[C@H]1C(=O)N1CCC[C@H]1C(=O)N1CCC[C@H]1C(=O)N[C@@H](CO)C(=O)N[C@@H](CCCCNC(=O)COCCOCCNC(=O)COCCOCCNC(=O)CC[C@H](NC(=O)CCCc1ccc(C(C)(C)C)cc1)C(=O)O)C(N)=O)[C@@H](C)CC)[C@@H](C)CC [Example 206] (H-Y[Aib]EGT[αMePhe(2-F)]TSD[4Pal]SI[αMeL]LD[Orn]IAQ[Aib]EFI[dE][αMeY]LIK([AEEA-AEEA-γGlu-Butanoyl(4-(4-tBuPh))])GGPSSGAPPPSK([AEEA-AEEA-γGlu-Butanoyl(4-(4-tBuPh))])-NH2)
[1]; 0.1% bovine casein and 1.0% human serum albumin, 37° C., read-out: hGLP-1R EC50, nM (SEM, n)
  EC50: 3.03 nM
[1]; [7]
  Emax: 98.1%
[1]; [4]
  Emax: 100%
[1]; cAMP, incubated at 37° C., 0.1% bovine casein (no human serum albumin), read-out: hGLP-1R EC50, nM (SEM, n)
  EC50: 0.299 nM
[2]; [8]
  EC50: > 9950 nM
[2]; [5]
  EC50: > 9950 nM
[3]; 0.1% bovine casein and 1.0% human serum albumin, 37° C., read-out: hGIPR EC50, nM (SEM, n)
  EC50: 0.242 nM
[3]; [9]
  Emax: 77.6%
[3]; HEK293, percent of maximal response to GIP(1-42)NH2, 37° C., 0.1% bovine casein, arithmetic mean, read-out: hGIPR Emax, % ± SEM
  Emax: 96.4%
[3]; [6]
  EC50: 0.0204 nM

## CC[C@H](C)[C@H](NC(=O)[C@H](CCCN)NC(=O)[C@H](CC(=O)O)NC(=O)[C@H](CC(C)C)NC(=O)[C@](C)(CC(C)C)NC(=O)[C@@H](NC(=O)[C@](C)(CO)NC(=O)[C@@H](NC(=O)[C@H](CC(=O)O)NC(=O)[C@H](CO)NC(=O)[C@@H](NC(=O)[C@](C)(Cc1ccccc1F)NC(=O)[C@@H](NC(=O)CNC(=O)[C@H](CCC(=O)O)NC(=O)C(C)(C)NC(=O)[C@@H](N)Cc1ccc(O)cc1)[C@@H](C)O)[C@@H](C)O)C(C)C)[C@@H](C)CC)C(=O)N[C@@H](C)C(=O)N[C@@H](CCC(N)=O)C(=O)NC(C)(C)C(=O)N[C@@H](CCC(=O)O)C(=O)N[C@@H](Cc1ccccc1)C(=O)N[C@H](C(=O)N[C@@H](CCCCNC(=O)COCCOCCNC(=O)COCCOCCNC(=O)CC[C@H](NC(=O)CCCCCCCCCCCCC(=O)O)C(=O)O)C(=O)N[C@@](C)(Cc1ccc(O)cc1)C(=O)N[C@@H](CC(C)C)C(=O)N[C@H](C(=O)N[C@@H](CCCCNC(=O)COCCOCCNC(=O)COCCOCCNC(=O)CC[C@H](NC(=O)CCCCCCCCCCCCC(=O)O)C(=O)O)C(=O)NCC(=O)NCC(=O)N1CCC[C@H]1C(=O)N[C@@H](CO)C(=O)N[C@@H](CO)C(=O)NCC(=O)N[C@@H](C)C(=O)N1CCC[C@H]1C(=O)N1CCC[C@H]1C(=O)N1CCC[C@H]1C(=O)N[C@@H](CO)C(N)=O)[C@@H](C)CC)[C@@H](C)CC [Example 305]
[1]; [7]
  Emax: 125%
[1]; cAMP, 37° C., 0.1% bovine casein (no human serum albumin), read-out: hGLP-1R EC50, nM (SEM, n)
  EC50: 0.629 nM
[2]; [8]
  EC50: > 9950 nM
[2]; cAMP, 37° C., 0.1% bovine casein (no human serum albumin), geometric mean, read-out: hGCGR EC50, nM (SEM, n)
  EC50: > 9950 nM
[3]; [9]
  Emax: 95.4%
[3]; HEK293, cAMP, 37° C., 0.1% bovine casein, percent of maximal response to GIP(1-42)NH2, arithmetic mean, read-out: hGIPR Emax, % ± SEM
  Emax: 105%
[3]; cAMP, 37° C., 0.1% bovine casein (no human serum albumin), read-out: hGIPR EC50, nM (SEM, n)
  EC50: 0.0289 nM
